Measurements taken from US20060088579A1, “Transdermal drug delivery systems” (priority 2002, published 2006).
Values joined by “and” are separate entries in the source; they are usually repeats but may differ in a detail not shown here. Equal values may be shown once. Where a name gives a salt, the structure may show the parent alone.

Assays:
[1] = human, pH 7.4
[2] = Microemulsion phase diagrams, drug load and stability; format: physicochemical; conditions: O/W ME
Procedure: (i) Microemulsion Phase Diagrams. Four microemulsion (ME) systems were investigated to determine their ternary phase diagrams. All percentages are given as mass ratios.
Each of the three components for a system was titrated until a phase change between microemulsion and two phase mixture was observed. The boundary of this transition was recorded over the entire concentration range. A microemulsion was determined as a miscible, optically clear, stable solution. At the transition to a two phase regime, there is a clear clouding of the mixture as well as an eventual separation of the phases.
(ii) Preparation of Formulations. […] Drug flux was tested through ME system 1 at two selected concentrations, one in the W/O region, and the other in the O/W. The W/O system consisted of H2O:IPM:Tween 80 (10:52:38 w/w) while the O/W system contained H2O:Ethanol:IPM:Tween 80 (27:18:16:39 w/w). Both systems stably incorporated 10% w/w NMP and 10% w/w oleyl alcohol. […] The “water phase” sample consisted of the aqueous elements H2O:Ethanol:NMP (51:31:18) in the same relative proportions as if the organic components were removed.

[3] = LDA chaperoning: lidocaine and NMP flux with 1% LDA in IPM or NMP solvent; format: in vitro ADME, human; conditions: for NMP Fluxss: NMP solvent
Text: (ii) Preparation of Skin Samples. […] (iii) Transport Experiments. […] J. […] (iv) LDA Chaperoning. […] The LDA's included octadecene, oleyl alcohol, and oleic acid. Similar solutions with NMP as the solvent were also obtained. […] (viii) Quantification of Transport. […] (ix) Calculations. […] D. Results

[4] = NMP partitioning between IPM and H2O; format: physicochemical; conditions: equilibrium mixture of H2O and IPM
Procedure: (vii) NMP Patitioning. Distilled water (2 ml), IPM (2 ml), and NMP (40 μl) were thoroughly vortexed in a glass tube. After equilibrating for 1 hour, the sample was centrifuged at 14,000 rpm for 6 minutes and separated into 2 phases. Samples of each phase were taken to determine NMP concentration by HPLC.
(viii) Quantification of Transport.

[5] = IPM/NMP binary vehicle transport, 2% w/v lidocaine free base; format: in vitro ADME, human
Text: (iii) Preparation of Skin Samples. […] (iv) Lidocaine Transport Experiments. […] J. […] (v) IPM/NMP Binary Vehicle Transport. […] (vi) Quantification of Lidocaine. […] (vii) Calculations.

in vitro = conditions: human, pH 7.4
[6] = H2O/NMP binary vehicle transport
[7] = human, 24 h, 2 % w/v, pH 7.4
Procedure: Flux through stripped human skin was compared with flux of the same drugs through distilled water. […] All drug concentrations were analyzed by HPLC.

C[C@]12CC[C@@H]3c4ccc(O)cc4CC[C@H]3[C@@H]1CC[C@@H]2O [Estradiol]
time at which steady state is reached in vitro [1]: about 4 hours

CCCCCCCCCCCCCC(=O)OC(C)C [IPM, isopropyl myristate]
% IPM Uptake (maximum) ([2]; Tween 80/Ethanol ratio 1:1): 47 % (w/w)
% IPM Uptake (maximum) ([2]; Tween 80/Ethanol ratio 1:2): 8.3 % (w/w)
% IPM Uptake (maximum) ([2]; Tween 80/Ethanol ratio 2:1): 42 % (w/w)
% IPM Uptake (maximum) ([2]; Tween 80/Ethanol ratio 2:3): 8.1 % (w/w)
% IPM Uptake (maximum) ([2]; Tween 80/Ethanol ratio 4:1): 4.5 % (w/w)
% IPM Uptake (maximum) ([2]; Tween 80/Ethanol ratio 9:1): 1.6 % (w/w)

CN1CCCC1=O [NMP, n-methyl pyrrolidone]
NMP Fluxss ([3]; 1% w/v isopropyl myristate): 15.8 ± 3.6 mg/cm^2/hr
NMP Fluxss ([3]; 1% w/v octadecene): 15.3 ± 1.2 mg/cm^2/hr
NMP Fluxss ([3]; 1% w/v oleic acid): 17.6 ± 2.0 mg/cm^2/hr
NMP Fluxss ([3]; 1% w/v oleyl alcohol): 20.7 ± 1.0 mg/cm^2/hr
NMP Fluxss ([3]; no LDA): 12.6±0.5 mg/cm^2/hr
flux of NMP through human skin ([3]; approximate value): ~10 mg/cm^2/hr
NMP partition in the water phase [4]: 98%
[IPM]/[H2O] partition coefficient of NMP [4]: 0.02±0.001 and 0.02
NMP 24 Hour Transport ([5]; 10% NMP (v/v)): 22.8 ± 3.7 µg
NMP Fluxss ([5]; 10% NMP (v/v)): 1.46 ± 0.9 μg cm^−2 hr^−1
NMP 24 Hour Transport ([5]; 25% NMP (v/v)): 83.6 ± 5.7 µg
NMP Fluxss ([5]; 25% NMP (v/v)): 5.40 ± 0.49 μg cm^−2 hr^−1
NMP 24 Hour Transport ([5]; 50% NMP (v/v)): 112 ± 5.3 µg
NMP Fluxss ([5]; 50% NMP (v/v)): 9.01 ± 0.84 μg cm^−2 hr^−1
NMP 24 Hour Transport ([5]; 60% NMP (v/v)): 134 ± 13 µg
NMP Fluxss ([5]; 60% NMP (v/v)): 11.2 ± 1.2 μg cm^−2 hr^−1
NMP 24 Hour Transport ([5]; 75% NMP (v/v)): 161 ± 6 µg
NMP Fluxss ([5]; 75% NMP (v/v)): 14.0 ± 0.9 μg cm^−2 hr^−1
NMP 24 Hour Transport ([5]; 90% NMP (v/v)): 128 ± 1 µg
NMP Fluxss ([5]; 90% NMP (v/v)): 11.7 ± 0.1 μg cm^−2 hr^−1
NMP 24 Hour Transport ([5]; 100% NMP (v/v)): 115 ± 0.2 µg
NMP Fluxss ([5]; 100% NMP (v/v)): 10.7 ± 0.2 μg cm^−2 hr^−1
Papp at 24 h, 10 % v/v (in vitro): 0.03 ×10⁻⁶ cm/s
Papp at 24 h, 20 % v/v (in vitro): 0.0178 ×10⁻⁶ cm/s
Papp at 24 h, 40 % v/v (in vitro): 0.0281 ×10⁻⁶ cm/s
Papp at 24 h, 50 % v/v (in vitro): 0.00861 ×10⁻⁶ cm/s
Papp at 24 h, 60 % v/v (in vitro): 0.0758 ×10⁻⁶ cm/s
Papp at 24 h, 80 % v/v (in vitro): 1.74 ×10⁻⁶ cm/s
Papp at 24 h, 90 % v/v (in vitro): 4.36 ×10⁻⁶ cm/s
Papp at 24 h, 100 % v/v (in vitro): 1.75 ×10⁻⁶ cm/s
NMP Fluxss ([6]; 10% NMP): 0.007 ± 0.007 μg/cm^2/hr
NMP Fluxss ([6]; 20% NMP): 0.008 ± 0.003 μg/cm^2/hr
NMP Fluxss ([6]; 40% NMP): 0.026 ± 0.021 μg/cm^2/hr
NMP Fluxss ([6]; 50% NMP): 0.010 ± 0.002 μg/cm^2/hr
NMP Fluxss ([6]; 60% NMP): 0.106 ± 0.058 μg/cm^2/hr
NMP Fluxss ([6]; 80% NMP): 3.26 ± 0.74 μg/cm^2/hr
NMP Fluxss ([6]; 90% NMP): 9.18 ± 0.53 μg/cm^2/hr
NMP Fluxss ([6]; 100% NMP): 12.6 ± 0.5 μg/cm^2/hr

CCCNC(C)C(=O)Nc1ccccc1C (centres unmarked) [Prilocaine HCl]
Fluxss from H2O [7]: 2.44 ± 0.98 μg/cm^2/hr
Fluxss from H2O/NMP [7]: 6.31 ± 0.14 μg/cm^2/hr
